Holding throughout (experiment): cell-based
One experiment concerns the target mNav1.7 (Mus musculus, UniProt Q62205). Conditions: for IC50: PatchXpress, tonic block, mouse Nav1.7, read-out: PX mNav1.7 Tonic IC50; for mNav1.7/hNav1.7: ratio of PX tonic IC50, mouse Nav1.7 over human Nav1.7.
The target of a further experiment is mouse Nav1.4 (Mus musculus, UniProt Q9ER60). Conditions: for IC50: PatchXpress, tonic block, mouse Nav1.4, read-out: PX mNav1.4 Tonic IC50; for mNav1.4/mNav1.7: ratio of PX tonic IC50, mouse Nav1.4 over mouse Nav1.7.
Chain of mouse Nav1.4 (Q9ER60 whole entry): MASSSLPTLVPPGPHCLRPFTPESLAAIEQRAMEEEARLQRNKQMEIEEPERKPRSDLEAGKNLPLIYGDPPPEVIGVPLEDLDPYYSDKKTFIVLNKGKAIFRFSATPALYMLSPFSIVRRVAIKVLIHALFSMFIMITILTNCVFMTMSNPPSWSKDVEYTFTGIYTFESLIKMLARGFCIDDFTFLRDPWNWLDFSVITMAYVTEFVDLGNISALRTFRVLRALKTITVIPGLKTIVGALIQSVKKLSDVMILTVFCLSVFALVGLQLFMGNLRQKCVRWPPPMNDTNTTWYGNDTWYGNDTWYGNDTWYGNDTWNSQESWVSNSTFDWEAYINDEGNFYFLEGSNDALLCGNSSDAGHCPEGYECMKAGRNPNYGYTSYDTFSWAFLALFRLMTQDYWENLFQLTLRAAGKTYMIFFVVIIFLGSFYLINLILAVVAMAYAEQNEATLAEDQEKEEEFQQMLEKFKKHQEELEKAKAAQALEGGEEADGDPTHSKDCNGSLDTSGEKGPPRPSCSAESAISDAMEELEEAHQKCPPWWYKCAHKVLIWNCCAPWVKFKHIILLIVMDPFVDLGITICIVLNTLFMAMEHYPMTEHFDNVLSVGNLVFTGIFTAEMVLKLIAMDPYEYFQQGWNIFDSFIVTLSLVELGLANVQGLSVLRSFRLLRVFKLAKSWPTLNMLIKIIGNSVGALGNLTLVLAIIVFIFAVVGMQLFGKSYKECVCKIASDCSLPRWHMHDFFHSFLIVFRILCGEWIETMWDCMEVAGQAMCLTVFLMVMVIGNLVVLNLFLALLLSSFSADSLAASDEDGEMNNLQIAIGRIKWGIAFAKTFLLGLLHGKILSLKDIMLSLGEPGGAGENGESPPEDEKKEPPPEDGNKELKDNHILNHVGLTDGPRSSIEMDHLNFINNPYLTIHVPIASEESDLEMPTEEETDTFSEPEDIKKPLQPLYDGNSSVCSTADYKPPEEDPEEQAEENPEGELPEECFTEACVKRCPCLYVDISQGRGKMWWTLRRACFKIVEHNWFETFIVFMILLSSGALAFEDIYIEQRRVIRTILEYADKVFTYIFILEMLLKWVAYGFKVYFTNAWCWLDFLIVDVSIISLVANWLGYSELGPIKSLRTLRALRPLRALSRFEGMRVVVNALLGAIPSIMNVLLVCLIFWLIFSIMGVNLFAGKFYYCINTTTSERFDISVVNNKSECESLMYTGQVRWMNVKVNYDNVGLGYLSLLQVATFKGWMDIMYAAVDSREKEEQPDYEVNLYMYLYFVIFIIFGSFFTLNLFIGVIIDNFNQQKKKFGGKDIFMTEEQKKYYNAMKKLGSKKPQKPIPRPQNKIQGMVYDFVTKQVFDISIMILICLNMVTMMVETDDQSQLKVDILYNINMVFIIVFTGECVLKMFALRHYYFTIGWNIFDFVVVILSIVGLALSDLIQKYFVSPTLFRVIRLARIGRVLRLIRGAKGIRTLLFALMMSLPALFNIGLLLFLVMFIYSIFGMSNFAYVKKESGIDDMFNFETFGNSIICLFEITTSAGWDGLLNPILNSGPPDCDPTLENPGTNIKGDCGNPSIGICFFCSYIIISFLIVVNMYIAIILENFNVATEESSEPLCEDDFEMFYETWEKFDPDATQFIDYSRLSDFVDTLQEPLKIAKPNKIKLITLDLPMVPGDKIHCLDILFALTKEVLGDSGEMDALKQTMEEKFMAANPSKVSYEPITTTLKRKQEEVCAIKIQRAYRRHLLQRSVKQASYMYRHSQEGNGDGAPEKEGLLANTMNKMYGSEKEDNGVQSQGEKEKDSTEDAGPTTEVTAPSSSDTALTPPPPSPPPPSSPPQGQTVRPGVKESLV
Another experiment deals with rNav1.7 (Rattus norvegicus, UniProt O08562). Conditions: for IC50: PatchXpress, tonic block, rat Nav1.7, read-out: PX rNav1.7 Tonic IC50; for rNav1.7/hNav1.7: ratio of PX tonic IC50, rat Nav1.7 over human Nav1.7.
Chain of rNav1.7 (O08562 whole entry): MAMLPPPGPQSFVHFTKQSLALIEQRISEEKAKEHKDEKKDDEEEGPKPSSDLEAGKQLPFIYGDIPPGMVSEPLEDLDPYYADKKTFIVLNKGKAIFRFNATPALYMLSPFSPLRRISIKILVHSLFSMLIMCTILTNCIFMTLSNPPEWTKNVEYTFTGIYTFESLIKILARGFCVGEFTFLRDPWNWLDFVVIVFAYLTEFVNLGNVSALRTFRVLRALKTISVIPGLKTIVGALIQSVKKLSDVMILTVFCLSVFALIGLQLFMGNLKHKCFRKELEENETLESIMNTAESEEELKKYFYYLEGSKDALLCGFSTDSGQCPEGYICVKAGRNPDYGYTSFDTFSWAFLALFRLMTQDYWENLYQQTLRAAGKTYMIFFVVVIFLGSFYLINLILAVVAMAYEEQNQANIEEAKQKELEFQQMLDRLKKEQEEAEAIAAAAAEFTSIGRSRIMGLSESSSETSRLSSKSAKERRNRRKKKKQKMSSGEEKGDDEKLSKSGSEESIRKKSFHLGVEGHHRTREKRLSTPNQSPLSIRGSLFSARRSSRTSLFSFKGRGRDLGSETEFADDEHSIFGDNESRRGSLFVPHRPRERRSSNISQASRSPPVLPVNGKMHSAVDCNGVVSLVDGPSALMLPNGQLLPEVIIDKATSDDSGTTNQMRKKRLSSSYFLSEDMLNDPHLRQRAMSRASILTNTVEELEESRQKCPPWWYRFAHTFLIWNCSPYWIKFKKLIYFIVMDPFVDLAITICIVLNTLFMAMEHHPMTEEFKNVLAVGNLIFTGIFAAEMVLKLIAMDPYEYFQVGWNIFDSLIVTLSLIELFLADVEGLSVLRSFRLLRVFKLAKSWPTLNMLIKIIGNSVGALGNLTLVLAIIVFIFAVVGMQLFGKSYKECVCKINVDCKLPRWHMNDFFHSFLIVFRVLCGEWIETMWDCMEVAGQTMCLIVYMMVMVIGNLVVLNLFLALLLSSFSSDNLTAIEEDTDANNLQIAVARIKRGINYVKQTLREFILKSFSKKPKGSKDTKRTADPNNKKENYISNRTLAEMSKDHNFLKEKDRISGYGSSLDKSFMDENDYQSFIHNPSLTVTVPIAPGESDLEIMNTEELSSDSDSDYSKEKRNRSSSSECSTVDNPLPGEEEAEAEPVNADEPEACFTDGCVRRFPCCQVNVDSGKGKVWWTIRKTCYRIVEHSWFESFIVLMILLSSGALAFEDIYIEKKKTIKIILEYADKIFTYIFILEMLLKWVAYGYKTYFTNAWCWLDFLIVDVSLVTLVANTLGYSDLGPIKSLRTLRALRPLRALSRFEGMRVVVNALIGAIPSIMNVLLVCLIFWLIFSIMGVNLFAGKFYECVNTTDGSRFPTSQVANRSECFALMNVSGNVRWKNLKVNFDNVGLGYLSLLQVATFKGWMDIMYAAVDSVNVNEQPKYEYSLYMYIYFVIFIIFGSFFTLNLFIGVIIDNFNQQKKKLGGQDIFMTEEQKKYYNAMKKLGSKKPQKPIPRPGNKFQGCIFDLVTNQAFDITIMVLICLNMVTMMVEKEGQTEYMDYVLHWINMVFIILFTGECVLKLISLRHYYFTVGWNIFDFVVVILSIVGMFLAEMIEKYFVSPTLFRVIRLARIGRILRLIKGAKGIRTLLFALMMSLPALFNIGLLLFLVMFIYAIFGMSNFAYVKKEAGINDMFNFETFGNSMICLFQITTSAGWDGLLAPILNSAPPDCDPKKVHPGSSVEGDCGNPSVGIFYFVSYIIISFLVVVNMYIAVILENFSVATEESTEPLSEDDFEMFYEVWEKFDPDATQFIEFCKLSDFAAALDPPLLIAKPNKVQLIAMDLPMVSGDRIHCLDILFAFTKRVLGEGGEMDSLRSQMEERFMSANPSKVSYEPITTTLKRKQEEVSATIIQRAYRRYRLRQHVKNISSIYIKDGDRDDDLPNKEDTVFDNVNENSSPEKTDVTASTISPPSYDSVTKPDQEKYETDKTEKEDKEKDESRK

As to `C#CC[C@H](N)C(=O)N[C@@H](Cc1ccc(O)cc1)C(=O)N[C@H]1CSSC[C@@H]2NC(=O)[C@@H]3CSSC[C@@H](C(=O)N[C@@H](CCCNC(=N)N)C(=O)N[C@@H](CCCCN)C(=O)N[C@@H](CCC(=O)O)C(=O)N[C@H](C(N)=O)[C@@H](C)CC)NC(=O)[C@H](Cc4c[nH]c5ccccc45)NC(=O)[C@H](CC(C)C)NC(=O)[C@H](CCCCN)NC(=O)[C@H](CSSC[C@H](NC(=O)[C@H]([C@@H](C)O)NC(=O)[C@H](Cc4c[nH]c5ccccc45)NC(=O)[C@H](CCCC)NC(=O)[C@H](Cc4c[nH]c5ccccc45)NC(=O)[C@H](CCCCN)NC(=O)[C@H](CCC(N)=O)NC1=O)C(=O)N[C@@H](CC(=O)O)C(=O)N[C@@H](CO)C(=O)N[C@@H](CCCCN)C(=O)N[C@@H](CCCNC(=N)N)C(=O)N[C@@H](C)C(=O)N3)NC(=O)[C@H](CCCNC(=N)N)NC(=O)[C@H](CC(C)C)NC(=O)CNC(=O)[C@H](CCC(=O)O)NC2=O` [Pra-[Nle6, Glu28]JzTx-V(1-29)], on mNav1.7, the IC50 is 9.86 nM and the mNav1.7/hNav1.7 is listed as 17.99. On mouse Nav1.4, the IC50 is 119 nM and the mNav1.4/mNav1.7 worked out at 12. For the same compound, at rNav1.7, the IC50 was found to be 0.641 nM and the rNav1.7/hNav1.7 worked out at 1.17.

Turning to `C#CC[C@H](N)C(=O)N[C@@H](Cc1ccc(O)cc1)C(=O)N[C@H]1CSSC[C@@H]2NC(=O)[C@@H]3CSSC[C@@H](C(=O)N[C@@H](CCCNC(=N)N)C(=O)N[C@@H](CCCCN)C(=O)N[C@@H](CCC(=O)O)C(=O)N[C@H](C(N)=O)[C@@H](C)CC)NC(=O)[C@H](Cc4c[nH]c5ccccc45)NC(=O)[C@H](CC(C)C)NC(=O)[C@H](CCCCN)NC(=O)[C@H](CSSC[C@H](NC(=O)[C@H]([C@@H](C)O)NC(=O)[C@H](Cc4c[nH]c5ccccc45)NC(=O)[C@H](CCCC)NC(=O)[C@H](Cc4c[nH]c5ccccc45)NC(=O)[C@H](CCCCN)NC(=O)[C@H](CCC(N)=O)NC1=O)C(=O)N[C@@H](CC(=O)O)C(=O)N[C@@H](CCC(=O)O)C(=O)N[C@@H](CCCCN)C(=O)N[C@@H](CCCNC(=N)N)C(=O)N[C@@H](C)C(=O)N3)NC(=O)[C@H](CCCNC(=N)N)NC(=O)[C@H](CC(C)C)NC(=O)CNC(=O)[C@H](CCC(=O)O)NC2=O` [Pra-[Nle6; Glu11, 28]JzTx-V(1-29)], the mNav1.7/hNav1.7 at mNav1.7 is 10.57. Moreover, the mNav1.4/mNav1.7 on mouse Nav1.4 was 34. Further, the rNav1.7/hNav1.7 at rNav1.7 is recorded as 0.95.

As for `C#CC[C@H](N)C(=O)N[C@@H](Cc1ccc(O)cc1)C(=O)N[C@H]1CSSC[C@@H]2NC(=O)[C@@H]3CSSC[C@@H](C(=O)N[C@@H](CCCNC(=N)N)C(=O)N[C@@H](CCCCN)C(=O)N[C@@H](CCC(=O)O)C(=O)N[C@H](C(N)=O)[C@@H](C)CC)NC(=O)[C@H](Cc4c[nH]c5ccccc45)NC(=O)[C@H](CC(C)C)NC(=O)[C@H](CCCCN)NC(=O)[C@H](CSSC[C@H](NC(=O)[C@H]([C@@H](C)O)NC(=O)[C@H](Cc4c[nH]c5ccccc45)NC(=O)[C@H](CCCC)NC(=O)[C@H](Cc4c[nH]c5ccccc45)NC(=O)[C@H](CCCCN)NC(=O)[C@H](CCC(N)=O)NC1=O)C(=O)N[C@@H](CC(=O)O)C(=O)N[C@@H](CO)C(=O)N[C@@H](CCC(=O)O)C(=O)N[C@@H](CCCNC(=N)N)C(=O)N[C@@H](C)C(=O)N3)NC(=O)[C@H](CCCNC(=N)N)NC(=O)[C@H](CC(C)C)NC(=O)CNC(=O)[C@H](CCCCN)NC2=O` [Pra-[Nle6; Glu12, 28; Lys17]JzTx-V(1-29)], at mNav1.7, the 50% inhibitory concentration (IC50) was 4.4 nM and the mNav1.7/hNav1.7 is 0.50. Moreover, on mouse Nav1.4, the IC50 came out at 63 nM and the mNav1.4/mNav1.7 amounted to 14. Besides, at rNav1.7, the half-maximal inhibitory concentration (IC50) came out at 2.01 nM and the rNav1.7/hNav1.7 is listed as 0.23.

In the case of `C#CC[C@H](N)C(=O)N[C@@H](Cc1ccc(O)cc1)C(=O)N[C@H]1CSSC[C@@H]2NC(=O)[C@@H]3CSSC[C@@H](C(=O)N[C@@H](CCCNC(=N)N)C(=O)N[C@@H](CCCCN)C(=O)N[C@@H](CCC(=O)O)C(=O)N[C@H](C(N)=O)[C@@H](C)CC)NC(=O)[C@H](Cc4c[nH]c5ccccc45)NC(=O)[C@H](CC(C)C)NC(=O)[C@H](CCCCN)NC(=O)[C@H](CSSC[C@H](NC(=O)[C@H]([C@@H](C)O)NC(=O)[C@H](Cc4c[nH]c5ccccc45)NC(=O)[C@H](CCCC)NC(=O)[C@H](Cc4c[nH]c5ccccc45)NC(=O)[C@H](CCCCN)NC(=O)[C@H](CCC(N)=O)NC1=O)C(=O)N[C@@H](CC(=O)O)C(=O)N[C@@H](CO)C(=O)N[C@@H](CCC(=O)O)C(=O)N[C@@H](CCCNC(=N)N)C(=O)N[C@@H](C)C(=O)N3)NC(=O)[C@H](CCCNC(=N)N)NC(=O)[C@H](CC(C)C)NC(=O)CNC(=O)[C@H](CCC(=O)O)NC2=O` [Pra-[Nle6; Glu12, 28]JzTx-V(1-29)], at mNav1.7, the IC50 was 16.2 nM and the mNav1.7/hNav1.7 was found to be 9.37. Further, at mouse Nav1.4, the IC50 came to 548 nM and the mNav1.4/mNav1.7 is recorded as 34. Also, at rNav1.7, the concentration for half-maximal inhibition (IC50) is 2.66 nM and the rNav1.7/hNav1.7 was determined as 1.54.

In the case of `C#CC[C@H](N)C(=O)N[C@@H](Cc1ccc(O)cc1)C(=O)N[C@H]1CSSC[C@@H]2NC(=O)[C@@H]3CSSC[C@@H](C(=O)N[C@@H](CCCNC(=N)N)C(=O)N[C@@H](CCCCN)C(=O)N[C@H](C(=O)N[C@H](C(N)=O)[C@@H](C)CC)[C@@H](C)CC)NC(=O)[C@H](Cc4c[nH]c5ccccc45)NC(=O)[C@H](CC(C)C)NC(=O)[C@H](CCCCN)NC(=O)[C@H](CSSC[C@H](NC(=O)[C@H]([C@@H](C)O)NC(=O)[C@H](Cc4c[nH]c5ccccc45)NC(=O)[C@H](CCCC)NC(=O)[C@H](Cc4c[nH]c5ccccc45)NC(=O)[C@H](CCCCN)NC(=O)[C@H](CCC(N)=O)NC1=O)C(=O)N[C@@H](CC(=O)O)C(=O)N[C@@H](CO)C(=O)N[C@@H](CCC(=O)O)C(=O)N[C@@H](CCCNC(=N)N)C(=O)N[C@@H](C)C(=O)N3)NC(=O)[C@H](CCCNC(=N)N)NC(=O)[C@H](CC(C)C)NC(=O)CNC(=O)[C@H](CCCCN)NC2=O` [Pra-[Nle6; Glu12; Lys17]JzTx-V(1-29)], at mNav1.7, the IC50 worked out at 1.27 nM and the mNav1.7/hNav1.7 is 0.68. Also, on mouse Nav1.4, the IC50 worked out at 2.77 nM and the mNav1.4/mNav1.7 was found to be 2.2. For the same compound, at rNav1.7, the IC50 turned out to be 0.653 nM and the rNav1.7/hNav1.7 came to 0.35.

For the compound `C#CC[C@H](N)C(=O)N[C@@H](Cc1ccc(O)cc1)C(=O)N[C@H]1CSSC[C@@H]2NC(=O)[C@@H]3CSSC[C@@H](C(=O)N[C@@H](CCCNC(=N)N)C(=O)N[C@@H](CCCCN)C(=O)N[C@H](C(=O)N[C@H](C(N)=O)[C@@H](C)CC)[C@@H](C)CC)NC(=O)[C@H](Cc4c[nH]c5ccccc45)NC(=O)[C@H](CC(C)C)NC(=O)[C@H](CCCCN)NC(=O)[C@H](CSSC[C@H](NC(=O)[C@H]([C@@H](C)O)NC(=O)[C@H](Cc4c[nH]c5ccccc45)NC(=O)[C@H](CCCC)NC(=O)[C@H](Cc4c[nH]c5ccccc45)NC(=O)[C@H](CCCCN)NC(=O)[C@H](CCC(N)=O)NC1=O)C(=O)N[C@@H](CC(=O)O)C(=O)N[C@@H](CO)C(=O)N[C@@H](CCC(=O)O)C(=O)N[C@@H](CCCNC(=N)N)C(=O)N[C@@H](C)C(=O)N3)NC(=O)[C@H](CCCNC(=N)N)NC(=O)[C@H](CC(C)C)NC(=O)CNC(=O)[C@H](CCC(=O)O)NC2=O` [Pra-[Nle6; Glu12]JzTx-V(1-29)], on mNav1.7, the IC50 was 0.61 nM and the mNav1.7/hNav1.7 came out at 0.51. Also, at mouse Nav1.4, the half-maximal inhibitory concentration (IC50) was found to be 6.36 nM and the mNav1.4/mNav1.7 was 10. On rNav1.7, the IC50 is 0.58 nM and the rNav1.7/hNav1.7 was 0.49.

Source of the values: patent US10344060B2 (priority 2013, dated 2019).
